Measured values taken from US20250213550A1, “COMPOUNDS AND METHODS FOR TREATING INFLAMMATORY BOWEL DISEASE” (Gilead Sciences, Inc., priority 2023, published 2025).
Like-named read-outs stand apart in the source and are kept apart here.

Tested on: LPS-stimulated pERK in monocytes (TPL2 pathway)
Test: Ex vivo LPS-stimulated pERK in monocytes of whole blood after Compound 1 dosing (flow cytometry)
Parameters: species or system human
Conditions: for inhibition at 300 mg / inhibition at 600 mg / inhibition at 900 mg / inhibition at 75 mg: Homo sapiens, Monocyte; for inhibition at 75 mg: 75 mg QD multiple dose
Method: For Cohorts 1-4, whole blood PD sampling occurred relative to the dose of Compound 1 at the following time points: • Day 1: 0 pre-dose (≤5 min prior to dosing), 1, 2, 3, 4, 8, 12, 24 and 36 hours post-dose
For Cohorts 5-9, whole blood PD sampling occurred relative to the dose of Compound 1 at the following time points: • Day 1: 0 pre-dose (≤5 min prior to dosing), 1, 2, 3, 4, 8, 12, and 24 hours post-dose • Day 10: 0 pre-dose (≤5 min prior to dosing), 1, 2, 3, 4, 8, 12, 24, 36, 48, 72, 96, and 120 hours post-dose
Whole blood PD Samples were stimulated ex vivo with lipopolysaccharide (LPS) or phosphate buffered saline (PBS), and the phosphorylation of extracellular signal-related kinase (pERK) was detected in monocytes by flow cytometry.
Pharmacodynamic changes after single and multiple doses of Compound 1 were also investigated by monitoring, in whole blood samples, stimulated with either lipopolysaccharide (LPS) or PBS for 15 minutes at 37° C. Changes to the phosphorylation of extracellular signal-regulated kinases (pERK) was measured in monocytes by flow cytometry, defined as CD15−CD14+.
Pharmacodynamic parameters for Compound 1 were calculated as percent change in pERK signal relative to Day 1 pre-dose (baseline) for all evaluable participants.
Multiple Ascending Doses: Pharmacodynamic parameters after multiple doses of Compound 1 were also calculated as percent change in pERK signal relative to Day 1 pre-dose (baseline) for all evaluable participants.

`Cn1ccc2c([C@@H](c3cn(C45CC(C4)C5)nn3)N(C(=O)OCOP(=O)(O)O)c3cc(Cl)c4ncc(C#N)c(NCC(C)(C)C)c4c3)cccc2c1=O` [Compound 1] was tested, and the inhibition at 300 mg (300 mg QD multiple dose, Day 1 1 hour, mean (SD), read-out: pERK Signal, % Inhibition) was 89.1%, the inhibition at 300 mg (300 mg QD multiple dose, Day 1 1 hour, median, read-out: pERK Signal, % Inhibition) was 93.8% and the inhibition at 300 mg (300 mg QD multiple dose, Day 1 3 hours, mean (SD), read-out: pERK Signal, % Inhibition) was 95.7%. The inhibition at 300 mg (300 mg QD multiple dose, Day 1 3 hours, median, read-out: pERK Signal, % Inhibition) was 97.1%, the inhibition at 300 mg (300 mg QD multiple dose, Day 1 12 hours, mean (SD), read-out: pERK Signal, % Inhibition) was 75.3% and the inhibition at 300 mg (300 mg QD multiple dose, Day 1 12 hours, median, read-out: pERK Signal, % Inhibition) was 74.3%. The inhibition at 300 mg (300 mg QD multiple dose, Day 10 1 hour, mean (SD), read-out: pERK Signal, % Inhibition) was 96.8%, the inhibition at 300 mg (300 mg QD multiple dose, Day 10 1 hour, median, read-out: pERK Signal, % Inhibition) was 97.1% and the inhibition at 300 mg (300 mg QD multiple dose, Day 10 3 hours, mean (SD), read-out: pERK Signal, % Inhibition) was 98.3%. It also gave an inhibition at 300 mg (300 mg QD multiple dose, Day 10 3 hours, median, read-out: pERK Signal, % Inhibition) of 98.7%, an inhibition at 300 mg (300 mg QD multiple dose, Day 10 12 hours, mean (SD), read-out: pERK Signal, % Inhibition) of 94% and an inhibition at 300 mg (300 mg QD multiple dose, Day 10 12 hours, median, read-out: pERK Signal, % Inhibition) of 95.7%. It also gave an inhibition at 300 mg (300 mg QD multiple dose, Day 10 24 hours, mean (SD), read-out: pERK Signal, % Inhibition) of 92.2%, an inhibition at 300 mg (300 mg QD multiple dose, Day 10 24 hours, median, read-out: pERK Signal, % Inhibition) of 91.6% and an inhibition at 600 mg (600 mg BID multiple dose, Day 1 1 hour, mean (SD), read-out: pERK Signal, % Inhibition) of 79.9%. The inhibition at 600 mg (600 mg BID multiple dose, Day 1 1 hour, median, read-out: pERK Signal, % Inhibition) was 74.3%, the inhibition at 600 mg (600 mg BID multiple dose, Day 1 3 hours, mean (SD), read-out: pERK Signal, % Inhibition) was 99.9% and the inhibition at 600 mg (600 mg BID multiple dose, Day 1 3 hours, median, read-out: pERK Signal, % Inhibition) was 99.9%. For the same molecule, the inhibition at 600 mg (600 mg BID multiple dose, Day 1 12 hours, mean (SD), read-out: pERK Signal, % Inhibition) was 84.2%, the inhibition at 600 mg (600 mg BID multiple dose, Day 1 12 hours, median, read-out: pERK Signal, % Inhibition) was 91% and the inhibition at 600 mg (600 mg BID multiple dose, Day 10 1 hour, mean (SD), read-out: pERK Signal, % Inhibition) was 99.5%. For the same molecule, the inhibition at 600 mg (600 mg BID multiple dose, Day 10 1 hour, median, read-out: pERK Signal, % Inhibition) was 100%, the inhibition at 600 mg (600 mg BID multiple dose, Day 10 3 hours, mean (SD), read-out: pERK Signal, % Inhibition) was 100% and the inhibition at 600 mg (600 mg BID multiple dose, Day 10 3 hours, median, read-out: pERK Signal, % Inhibition) was 100%. For the same molecule, the inhibition at 600 mg (600 mg BID multiple dose, Day 10 12 hours, mean (SD), read-out: pERK Signal, % Inhibition) was 100%, the inhibition at 600 mg (600 mg BID multiple dose, Day 10 12 hours, median, read-out: pERK Signal, % Inhibition) was 100% and the inhibition at 600 mg (600 mg BID multiple dose, Day 10 24 hours, mean (SD), read-out: pERK Signal, % Inhibition) was 103%. It also gave an inhibition at 600 mg (600 mg BID multiple dose, Day 10 24 hours, median, read-out: pERK Signal, % Inhibition) of 102%, an inhibition at 900 mg (900 mg QD multiple dose, Day 1 1 hour, mean (SD), read-out: pERK Signal, % Inhibition) of 88.9% and an inhibition at 900 mg (900 mg QD multiple dose, Day 1 1 hour, median, read-out: pERK Signal, % Inhibition) of 95%. It also gave an inhibition at 900 mg (900 mg QD multiple dose, Day 1 3 hours, mean (SD), read-out: pERK Signal, % Inhibition) of 99.8%, an inhibition at 900 mg (900 mg QD multiple dose, Day 1 3 hours, median, read-out: pERK Signal, % Inhibition) of 99.6% and an inhibition at 900 mg (900 mg QD multiple dose, Day 1 12 hours, mean (SD), read-out: pERK Signal, % Inhibition) of 95.2%. For the same molecule, the inhibition at 900 mg (900 mg QD multiple dose, Day 1 12 hours, median, read-out: pERK Signal, % Inhibition) was 95.3%, the inhibition at 900 mg (900 mg QD multiple dose, Day 10 1 hour, mean (N=1), read-out: pERK Signal, % Inhibition) was 99.4% and the inhibition at 900 mg (900 mg QD multiple dose, Day 10 1 hour, median (N=1), read-out: pERK Signal, % Inhibition) was 99.4%. It also gave an inhibition at 900 mg (900 mg QD multiple dose, Day 10 3 hours, mean (N=1), read-out: pERK Signal, % Inhibition) of 99.6%, an inhibition at 900 mg (900 mg QD multiple dose, Day 10 3 hours, median (N=1), read-out: pERK Signal, % Inhibition) of 99.6% and an inhibition at 900 mg (900 mg QD multiple dose, Day 10 12 hours, mean (N=1), read-out: pERK Signal, % Inhibition) of 96.7%. It also gave an inhibition at 900 mg (900 mg QD multiple dose, Day 10 12 hours, median (N=1), read-out: pERK Signal, % Inhibition) of 96.7%, an inhibition at 900 mg (900 mg QD multiple dose, Day 10 24 hours, mean (SD), read-out: pERK Signal, % Inhibition) of 98.3% and an inhibition at 900 mg (900 mg QD multiple dose, Day 10 24 hours, median, read-out: pERK Signal, % Inhibition) of 98.5%. It also gave an inhibition at 75 mg (24 h, Day 1 24 hours, mean (SD), read-out: pERK Signal, % Inhibition) of 1%, an inhibition at 75 mg (24 h, Day 1 24 hours, median, read-out: pERK Signal, % Inhibition) of 4.4% and an inhibition at 300 mg (24 h, 300 mg QD multiple dose, Day 1 24 hours, mean (SD), read-out: pERK Signal, % Inhibition) of 72.9%. It also gave an inhibition at 300 mg (24 h, 300 mg QD multiple dose, Day 1 24 hours, median, read-out: pERK Signal, % Inhibition) of 71.5%, an inhibition at 300 mg (24 h, 300 mg QD, steady state, 24 hours post-last dose, read-out: inhibition of LPS-stimulated pERK) greater than 90% and an inhibition at 600 mg (24 h, 600 mg BID multiple dose, Day 1 24 hours, mean (SD), read-out: pERK Signal, % Inhibition) of 97.6%. It also gave an inhibition at 600 mg (24 h, 600 mg BID multiple dose, Day 1 24 hours, median, read-out: pERK Signal, % Inhibition) of 99.5%, an inhibition at 600 mg (24 h, 600 mg BID, steady state, 24 hours post-last dose, read-out: inhibition of LPS-stimulated pERK) greater than 90% and an inhibition at 900 mg (24 h, 900 mg QD multiple dose, Day 1 24 hours, mean (SD), read-out: pERK Signal, % Inhibition) of 90.2%. For the same molecule, the inhibition at 900 mg (24 h, 900 mg QD multiple dose, Day 1 24 hours, median, read-out: pERK Signal, % Inhibition) was 89.9%, the inhibition at 900 mg (24 h, 900 mg QD, steady state, 24 hours post-last dose, read-out: inhibition of LPS-stimulated pERK) was greater than 90% and the inhibition at 75 mg (240 h, Day 10 predose, mean (SD), read-out: pERK Signal, % Inhibition) was 24.4%. The inhibition at 75 mg (240 h, Day 10 predose, median, read-out: pERK Signal, % Inhibition) was 41.3%, the inhibition at 300 mg (240 h, 300 mg QD multiple dose, Day 10 predose, mean (SD), read-out: pERK Signal, % Inhibition) was 93.5% and the inhibition at 300 mg (240 h, 300 mg QD multiple dose, Day 10 predose, median, read-out: pERK Signal, % Inhibition) was 93.4%. It also gave an inhibition at 600 mg (240 h, 600 mg BID multiple dose, Day 10 predose, mean (SD), read-out: pERK Signal, % Inhibition) of 98.6%, an inhibition at 600 mg (240 h, 600 mg BID multiple dose, Day 10 predose, median, read-out: pERK Signal, % Inhibition) of 100% and an inhibition at 900 mg (240 h, 900 mg QD multiple dose, Day 10 predose, mean (N=1), read-out: pERK Signal, % Inhibition) of 97.1%. The inhibition at 900 mg (240 h, 900 mg QD multiple dose, Day 10 predose, median (N=1), read-out: pERK Signal, % Inhibition) was 97.1%, the “inhibition of LPS-stimulated pERK in ex vivo whole blood samples” value (SAD and MAD cohorts) was “dose-dependent and reversible inhibition” and the “time of peak inhibition of LPS-stimulated pERK” value (single oral doses, fasted, all dosages, post-dose) was 3 hours.
